Test results taken from ChEMBL document CHEMBL2086254, “Synthesis and identification of novel indolo[2,3-a]pyrimido[5,4-c]carbazoles as a new class of anti-cancer agents” (Eur J Med Chem, 2012).
One block for each compound: values may come before it. Calls of active or inactive are those of the source. The calls are words filed in the database; no cut-off is given here.

Legend:
MDA-MB-468 = assay: Cytotoxicity against human MDA-MB-468 cells assessed as cell growth at 10 uM after 48 hrs by SRB assay relative to control; assay type: functional; details: MDA-MB-468, 48 h, read-out: Activity
OVCAR-5 = assay: Cytotoxicity against human OVCAR5 cells assessed as cell growth at 10 uM after 48 hrs by SRB assay relative to control; assay type: functional; details: OVCAR-5, 48 h, read-out: Activity
SN12C = assay: Cytotoxicity against human SN12C cells assessed as cell growth at 10 uM after 48 hrs by SRB assay relative to control; assay type: functional; details: read-out: Activity
[1] = biological target: DNA topoisomerase 2-alpha (Homo sapiens) (UniProt P11388); assay: Inhibition of human DNA topoisomerase 2 at 100 uM after 1 hr by agarose gel circular DNA decatenation assay
EKVX = assay: Cytotoxicity against human EKVX cells assessed as cell growth at 10 uM after 48 hrs by SRB assay relative to control; assay type: functional; details: read-out: Activity
CAKI-1 = assay: Cytotoxicity against human Caki1 cells assessed as cell growth at 10 uM after 48 hrs by SRB assay relative to control; assay type: functional; details: CAKI-1, 48 h, read-out: Activity
CCRF-CEM [2] = assay: Cytotoxicity against human CCRF-CEM cells assessed as cell growth at 10 uM after 48 hrs by SRB assay relative to control; assay type: functional; details: read-out: Activity
HL-60 = assay: Cytotoxicity against human HL60 cells assessed as cell growth at 10 uM after 48 hrs by SRB assay relative to control; assay type: functional; details: HL-60, 48 h, read-out: Activity
NCI-H522 [3] = assay: Cytotoxicity against human NCI-H522 cells assessed as cell growth at 10 uM after 48 hrs by SRB assay relative to control; assay type: functional; details: NCI-H522, 48 h, read-out: Activity
HT-29 = assay: Cytotoxicity against human HT-29 cells assessed as cell growth at 10 uM after 48 hrs by SRB assay relative to control; assay type: functional; details: HT-29, 48 h, read-out: Activity
KM12 = assay: Cytotoxicity against human KM12 cells assessed as cell growth at 10 uM after 48 hrs by SRB assay relative to control; assay type: functional; details: KM12, 48 h, read-out: Activity
ACHN = assay: Cytotoxicity against human ACHN cells assessed as cell growth at 10 uM after 48 hrs by SRB assay relative to control; assay type: functional; details: read-out: Activity
SR = assay: Cytotoxicity against human SR cells assessed as cell growth at 10 uM after 48 hrs by SRB assay relative to control; assay type: functional; details: read-out: Activity
MOLT-4 = assay: Cytotoxicity against human MOLT4 cells assessed as cell growth at 10 uM after 48 hrs by SRB assay relative to control; assay type: functional; details: MOLT-4, 48 h, read-out: Activity
NCI-H226 = assay: Cytotoxicity against human NCI-H226 cells assessed as cell growth at 10 uM after 48 hrs by SRB assay relative to control; assay type: functional; details: NCI-H226, 48 h, read-out: Activity
NCI-H322M [4] = assay: Cytotoxicity against human NCI-H322M cells assessed as cell growth at 10 uM after 48 hrs by SRB assay relative to control; assay type: functional; details: read-out: Activity
NCI-H460 = assay: Cytotoxicity against human NCI-H460 cells assessed as cell growth at 10 uM after 48 hrs by SRB assay relative to control; assay type: functional; details: NCI-H460, 48 h, read-out: Activity
COLO 205 = assay: Cytotoxicity against human COLO205 cells assessed as cell growth at 10 uM after 48 hrs by SRB assay relative to control; assay type: functional; details: COLO 205, 48 h, read-out: Activity
HCC 2998 = assay: Cytotoxicity against human HCC2998 cells assessed as cell growth at 10 uM after 48 hrs by SRB assay relative to control; assay type: functional; details: HCC 2998, 48 h, read-out: Activity
SF-539 = assay: Cytotoxicity against human SF539 cells assessed as cell growth at 10 uM after 48 hrs by SRB assay relative to control; assay type: functional; details: SF-539, 48 h, read-out: Activity
OVCAR-4 = assay: Cytotoxicity against human OVCAR4 cells assessed as cell growth at 10 uM after 48 hrs by SRB assay relative to control; assay type: functional; details: OVCAR-4, 48 h, read-out: Activity
UACC-62 = assay: Cytotoxicity against human UACC62 cells assessed as cell growth at 10 uM after 48 hrs by SRB assay relative to control; assay type: functional; details: UACC-62, 48 h, read-out: Activity
MDA-MB-231 = assay: Cytotoxicity against human MDA-MB-231 cells assessed as cell growth at 10 uM after 48 hrs by SRB assay relative to control; assay type: functional; details: MDA-MB-231, 48 h, read-out: Activity
OVCAR-8 [5] = assay: Cytotoxicity against human OVCAR8 cells assessed as cell growth at 10 uM after 48 hrs by SRB assay relative to control; assay type: functional; details: OVCAR-8, 48 h, read-out: Activity
786-0 = assay: Cytotoxicity against human 786-0 cells assessed as cell growth at 10 uM after 48 hrs by SRB assay relative to control; assay type: functional; details: 786-0, 48 h, read-out: Activity
A549 = assay: Cytotoxicity against human A549 cells after 48 hrs by SRB assay; assay type: functional; details: A549, 48 h
NCI-H322M [6] = assay: Cytotoxicity against human NCI-H322M cells after 48 hrs by SRB assay; assay type: functional
NCI-H522 [7] = assay: Cytotoxicity against human NCI-H522 cells after 48 hrs by SRB assay; assay type: functional; details: NCI-H522, 48 h
OVCAR-8 [8] = assay: Cytotoxicity against human OVCAR8 cells after 48 hrs by SRB assay; assay type: functional; details: OVCAR-8, 48 h
CCRF-CEM [9] = assay: Cytotoxicity in human CCRF-CEM cells after 48 hrs by SRB assay; assay type: functional
HCT-15 = assay: Cytotoxicity against human HCT15 cells after 48 hrs by SRB assay; assay type: functional; details: HCT-15, 48 h
SK-MEL-2 = assay: Cytotoxicity against human SK-MEL-2 cells after 48 hrs by SRB assay; assay type: functional; details: SK-MEL-2, 48 h
UACC-257 = assay: Cytotoxicity against human UACC257 cells after 48 hrs by SRB assay; assay type: functional; details: UACC-257, 48 h
UO-31 = assay: Cytotoxicity against human UO31 cells after 48 hrs by SRB assay; assay type: functional; details: UO-31, 48 h
SK-MEL-5 = assay: Cytotoxicity against human SK-MEL-5 cells after 48 hrs by SRB assay; assay type: functional; details: SK-MEL-5, 48 h
[10] = read-out: LC50 (the source's name)

Chain of DNA topoisomerase 2-alpha (Homo sapiens) (P11388 whole entry): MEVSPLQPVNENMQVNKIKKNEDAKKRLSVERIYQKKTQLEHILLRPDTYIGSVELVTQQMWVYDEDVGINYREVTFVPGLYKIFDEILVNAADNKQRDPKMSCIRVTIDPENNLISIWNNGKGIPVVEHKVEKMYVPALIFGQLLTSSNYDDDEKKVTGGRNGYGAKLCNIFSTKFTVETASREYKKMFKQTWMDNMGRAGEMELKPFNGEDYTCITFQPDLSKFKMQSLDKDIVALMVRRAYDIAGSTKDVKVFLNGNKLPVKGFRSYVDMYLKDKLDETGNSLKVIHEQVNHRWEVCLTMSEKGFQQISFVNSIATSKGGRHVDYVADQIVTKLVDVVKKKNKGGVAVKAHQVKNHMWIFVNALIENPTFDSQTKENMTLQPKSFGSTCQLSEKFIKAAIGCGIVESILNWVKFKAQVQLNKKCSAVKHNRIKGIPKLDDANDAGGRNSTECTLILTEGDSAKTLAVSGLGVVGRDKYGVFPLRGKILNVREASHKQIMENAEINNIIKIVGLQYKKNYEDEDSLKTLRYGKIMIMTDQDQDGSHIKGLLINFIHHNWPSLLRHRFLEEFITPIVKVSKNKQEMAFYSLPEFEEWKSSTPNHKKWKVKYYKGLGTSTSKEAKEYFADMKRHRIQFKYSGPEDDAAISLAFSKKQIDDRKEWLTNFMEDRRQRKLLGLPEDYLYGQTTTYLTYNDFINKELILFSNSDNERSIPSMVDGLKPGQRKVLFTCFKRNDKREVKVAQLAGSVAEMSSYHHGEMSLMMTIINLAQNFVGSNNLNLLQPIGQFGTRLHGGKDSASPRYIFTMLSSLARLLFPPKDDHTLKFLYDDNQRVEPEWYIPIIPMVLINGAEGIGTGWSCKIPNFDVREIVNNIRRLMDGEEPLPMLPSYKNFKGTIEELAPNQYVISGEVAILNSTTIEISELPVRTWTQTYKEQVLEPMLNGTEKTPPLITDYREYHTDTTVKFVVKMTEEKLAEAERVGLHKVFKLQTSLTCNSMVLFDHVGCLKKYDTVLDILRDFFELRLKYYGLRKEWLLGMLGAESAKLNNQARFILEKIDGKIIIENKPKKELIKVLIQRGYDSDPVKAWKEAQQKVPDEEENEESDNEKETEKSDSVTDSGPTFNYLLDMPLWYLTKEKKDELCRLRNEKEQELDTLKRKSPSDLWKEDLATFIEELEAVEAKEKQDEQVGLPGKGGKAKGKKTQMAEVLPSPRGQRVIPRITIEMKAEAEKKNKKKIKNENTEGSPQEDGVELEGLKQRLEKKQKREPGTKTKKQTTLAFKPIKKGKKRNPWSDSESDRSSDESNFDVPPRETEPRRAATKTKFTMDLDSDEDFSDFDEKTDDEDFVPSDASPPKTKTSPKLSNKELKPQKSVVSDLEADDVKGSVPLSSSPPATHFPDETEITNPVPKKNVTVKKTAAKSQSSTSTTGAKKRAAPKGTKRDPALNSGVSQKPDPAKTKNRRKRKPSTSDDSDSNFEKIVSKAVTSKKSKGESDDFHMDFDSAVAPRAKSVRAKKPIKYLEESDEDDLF

inhibition [1]: inactive
SMILES: Cn1cc(-c2[nH]c(=S)[nH]c(=O)c2-c2cn(C)c3ccccc23)c2ccccc21
growth at 10 µM (MDA-MB-468): 107%
growth at 10 µM (OVCAR-5): 107%
growth at 10 µM (SN12C): 103%
growth at 10 µM (EKVX): 75%
growth at 10 µM (CAKI-1): 82.4%
growth at 10 µM (CCRF-CEM [2]): 99%
growth at 10 µM (HL-60): 104%
growth at 10 µM (NCI-H522 [3]): 96.7%
growth at 10 µM (HT-29): 112%
growth at 10 µM (KM12): 97.9%
growth at 10 µM (ACHN): 95.5%
growth at 10 µM (SR): 93.9%
growth at 10 µM (MOLT-4): 103%
growth at 10 µM (NCI-H226): 87.1%
growth at 10 µM (NCI-H322M [4]): 96.5%
growth at 10 µM (NCI-H460): 93%
growth at 10 µM (COLO 205): 100%
growth at 10 µM (HCC 2998): 113%
growth at 10 µM (SF-539): 99.1%
growth at 10 µM (OVCAR-4): 103%
growth at 10 µM (UACC-62): 93.4%
growth at 10 µM (MDA-MB-231): 91.7%
growth at 10 µM (OVCAR-8 [5]): 102%
growth at 10 µM (786-0): 107%

inhibition [1]: inactive
SMILES: Cn1cc(-c2nc(N)[nH]c(=O)c2-c2cn(C)c3ccccc23)c2ccccc21
growth at 10 µM (MDA-MB-468): 106%
growth at 10 µM (EKVX): 105%
growth at 10 µM (CAKI-1): 94.6%
growth at 10 µM (HL-60): 103%
growth at 10 µM (NCI-H522 [3]): 86.7%
growth at 10 µM (HT-29): 94.3%
growth at 10 µM (KM12): 103%
growth at 10 µM (ACHN): 98.5%
growth at 10 µM (SR): 110%
growth at 10 µM (MOLT-4): 105%
growth at 10 µM (NCI-H226): 91%
growth at 10 µM (NCI-H322M [4]): 88.6%
growth at 10 µM (NCI-H460): 90.7%
growth at 10 µM (COLO 205): 104%
growth at 10 µM (HCC 2998): 120%
growth at 10 µM (SF-539): 141%
growth at 10 µM (UACC-62): 96.1%
growth at 10 µM (MDA-MB-231): 105%
growth at 10 µM (OVCAR-8 [5]): 97.5%
growth at 10 µM (786-0): 122%

SMILES: Cn1c2ccccc2c2c3nc(N)[nH]c(=O)c3c3c4ccccc4n(C)c3c21
growth at 10 µM (MDA-MB-468): 80.3%
GI50 (A549): 5.8 µM
TGI (A549): > 100 µM
CC50 (A549; [10]): > 100 µM
GI50 (NCI-H322M [6]): 5.3 µM
TGI (NCI-H322M [6]): > 100 µM
CC50 (NCI-H322M [6]; [10]): > 100 µM
GI50 (NCI-H522 [7]): 14.5 µM
TGI (NCI-H522 [7]): > 100 µM
CC50 (NCI-H522 [7]; [10]): > 100 µM
GI50 (OVCAR-8 [8]): 3.82 µM
TGI (OVCAR-8 [8]): > 100 µM
CC50 (OVCAR-8 [8]; [10]): > 100 µM
growth at 10 µM (SN12C): 61.4%
inhibition [1]: inactive
growth at 10 µM (EKVX): 73.5%
growth at 10 µM (CAKI-1): -14.9%
growth at 10 µM (CCRF-CEM [2]): 35.2%
growth at 10 µM (HL-60): 34.3%
growth at 10 µM (NCI-H522 [3]): 46.1%
growth at 10 µM (HT-29): 17.6%
growth at 10 µM (KM12): 19.9%
growth at 10 µM (ACHN): 29.5%
GI50 (CCRF-CEM [9]): 3.41 µM
TGI (CCRF-CEM [9]): > 100 µM
CC50 (CCRF-CEM [9]; [10]): > 100 µM
GI50 (HCT-15): 1.98 µM
TGI (HCT-15): > 100 µM
CC50 (HCT-15; [10]): > 100 µM
GI50 (SK-MEL-2): 1.9 µM
TGI (SK-MEL-2): 7.59 µM
CC50 (SK-MEL-2; [10]): 76.5 µM
GI50 (UACC-257): 12.8 µM
TGI (UACC-257): 32 µM
CC50 (UACC-257; [10]): 79.7 µM
GI50 (UO-31): 1.37 µM
TGI (UO-31): > 100 µM
CC50 (UO-31; [10]): > 100 µM
GI50 (SK-MEL-5): 3.25 µM
TGI (SK-MEL-5): 13.7 µM
CC50 (SK-MEL-5; [10]): 37.9 µM
growth at 10 µM (SR): 64%
growth at 10 µM (MOLT-4): 53.3%
growth at 10 µM (NCI-H226): 78.1%
growth at 10 µM (NCI-H322M [4]): 32.9%
growth at 10 µM (NCI-H460): 40.6%
growth at 10 µM (COLO 205): 67.9%
growth at 10 µM (HCC 2998): 60.9%
growth at 10 µM (SF-539): 99.1%
growth at 10 µM (UACC-62): 81.3%
growth at 10 µM (MDA-MB-231): 103%
growth at 10 µM (OVCAR-8 [5]): 43.1%
growth at 10 µM (786-0): 62.3%
